{"source": "patent EP0164700B1", "about": "“Bis(beta-hydroxy phenethyl)amines” (BEECHAM GROUP PLC, priority 1984, dated 1985)", "format_in_all_cases": "in vivo", "key": {"Male Sprague-Dawley rats": {"tested_on": "Male Sprague-Dawley rats", "experiment": "Effect on energy expenditure of rats", "settings": "Rattus norvegicus, po; for response vs control in vivo at 0.57 mg/kg: dose 0.57 mg/kg p.o.; for response vs control in vivo at 0.57 mg/kg / response vs control in vivo at 26.4 mg/kg / response vs control in vivo at 9.4 mg/kg / response vs control in vivo at 10.4 mg/kg / response vs control in vivo at 4.73 mg/kg / response vs control in vivo at 10.3 mg/kg / response vs control in vivo at 5.8 mg/kg: percentage of the rate of energy expenditure of the rats dosed with water, fasted rats; for response vs control in vivo at 26.4 mg/kg: dose 26.4 mg/kg p.o.; for response vs control in vivo at 9.4 mg/kg: dose 9.4 mg/kg p.o.; for response vs control in vivo at 10.4 mg/kg: dose 10.4 mg/kg p.o.; for response vs control in vivo at 4.73 mg/kg: dose 4.73 mg/kg p.o.; for response vs control in vivo at 10.3 mg/kg: dose 10.3 mg/kg p.o.; for response vs control in vivo at 5.8 mg/kg: dose 5.8 mg/kg p.o.", "procedure": "Male Sprague-Dawley rats each weighing between 170-200 g were deprived of food for 16 hours before, and during the experiment. Water was provided ab lib at all times. The compounds were administered orally in water to 3 or 4 rats. A further 4 rats were dosed orally with water. The rats were placed in boxes through which air was drawn and the oxygen content of the air leaving the boxes was measured. The energy expenditure of the rats was calculated for 3 hours and for 21 hours after dosing from the volume of air leaving the boxes and its oxygen content, following the pinciples described by J. B. de V. Weir, J. Physiol. (London) 109, 1-9 (1949). The results are expressed as a percentage of the rate of energy expenditure of the rats dosed with water."}, "Female CFLP mice": {"tested_on": "Female CFLP mice", "experiment": "Anti-hyperglycaemic activity (glucose tolerance after subcutaneous glucose load)", "settings": "24 h fasted mice, glucose 1 g/kg s.c. 30 min after dosing, 2 hour period, compared with water controls", "procedure": "Female CFLP mice, weighing approximately 25 g, were fasted for 24 hours prior to the study. The compound under study was administered orally as an aqueous solution to each of 6 mice. 30 minutes later a blood sample (10 µl) was obtained from the tail for the analysis of blood glucose. Immediately after taking this blood sample, glucose (1 g/kg body weight) was administered subcutaneously to each mouse. 6 mice were given water as a control. Blood samples were then obtained from each mouse at 30 minute intervals for 120 minutes.\nCompounds that produce a significant (P<0.05) reduction of blood glucose, compared with control mice given water, at any time interval, are considered active. The area under the blood glucose curve over the 2 hour period after the administration of the glucose was calculated for the compounds and compared with the value for control animals."}, "Female BALB/c mice": {"tested_on": "Female BALB/c mice", "experiment": "Anti-obesity activity (weight of parametrial fat pads)", "settings": "5.8 mg/kg of diet, added to the diet for 3 days, treated animals compared with controls, mean of 9 values", "procedure": "Female BALB/c mice were trained to feed on powdered oxoid for 1 week. They were then housed in threes and the compound under study was added to the diet for 3 days. Food was removed at 09.00h and the mice were killed at 11.00h. The parmetrial fat pads were weighed as pairs. The result is a mean of 9 values.\nThe compound of Example Number 3 gave a 38% reduction in weight of perigenital adipose tissue in. treated animals compared with controls when given at a dose of 5.8 mg/kg of diet."}, "[1]": {"settings": "3 h, read-out: Mean Energy Expenditure (0—3h)"}, "[2]": {"settings": "21 h, read-out: Mean Energy Expenditure (9—21h)"}}, "note": "Where a name gives a salt, the structure may show the parent alone. Read-outs that look alike come from different tables or passages of the source."}
{"smiles": "COC(=O)COc1ccc(CC(C)N(CC(O)c2cccc(Cl)c2)CC(O)c2cccc(Cl)c2)cc1.Cl.O", "note": "(stereo not drawn) [Example 1, Methyl 4-[2-[bis-[β-hydroxy-3-chlorophenethyl]amino]propyl]phenoxyacetate hydrochloride monohydrate]", "values": [{"measurement": "response vs control in vivo at 0.57 mg/kg", "setting": "Male Sprague-Dawley rats; [1]", "value": 132, "unit": "%"}, {"measurement": "response vs control in vivo at 0.57 mg/kg", "setting": "Male Sprague-Dawley rats; [2]", "value": 110, "unit": "%"}, {"measurement": "% Reduction in area under Blood Glucose Curve", "setting": "Female CFLP mice; dose 5 µmol/kg orally", "value": 55, "unit": "%"}]}
{"smiles": "CNC(=O)COc1ccc(C[C@@H](C)N(C[C@H](O)c2ccccc2)C[C@H](O)c2ccccc2)cc1.Cl", "note": "[Example 6, N-Methyl 4-[(R)-2-[bis-[(R)-β-hydroxyphenethyl]amino]propyl]phenoxyacetamide hydrochloride]", "values": [{"measurement": "response vs control in vivo at 10 mg/kg", "setting": "Male Sprague-Dawley rats; [1]", "value": 154, "unit": "%"}, {"measurement": "response vs control in vivo at 10 mg/kg", "setting": "Male Sprague-Dawley rats; [2]", "value": 147, "unit": "%"}, {"measurement": "% Reduction in area under Blood Glucose Curve", "setting": "Female CFLP mice; dose 2.5 µmol/kg orally", "value": 52, "unit": "%"}]}
{"smiles": "CCOC(=O)COc1ccc(CC[C@@H](C)N(C[C@H](O)c2ccccc2)C[C@H](O)c2ccccc2)cc1.Cl", "note": "[Example 4, Ethyl 4-[(R)-3-[bis-[(R)-β-hydroxyphenethyl]amino]butyl]phenoxyacetate hydrochloride]", "values": [{"measurement": "response vs control in vivo at 26.4 mg/kg", "setting": "Male Sprague-Dawley rats; [1]", "value": 111, "unit": "%"}, {"measurement": "response vs control in vivo at 26.4 mg/kg", "setting": "Male Sprague-Dawley rats; [2]", "value": 99, "unit": "%"}, {"measurement": "% Reduction in area under Blood Glucose Curve", "setting": "Female CFLP mice; dose 12.5 µmol/kg orally", "value": 42, "unit": "%"}]}
{"smiles": "C[C@H](Cc1ccc(OCCO)cc1)N(C[C@H](O)c1ccccc1)C[C@H](O)c1ccccc1", "note": "[Example 5, 4-[(R)-2-[bis-[(R)-β-hydroxyphenethyl]amino]propyl]phenoxyethanol hydrochloride]", "values": [{"measurement": "response vs control in vivo at 9.4 mg/kg", "setting": "Male Sprague-Dawley rats; [1]", "value": 159, "unit": "%"}, {"measurement": "response vs control in vivo at 9.4 mg/kg", "setting": "Male Sprague-Dawley rats; [2]", "value": 152, "unit": "%"}, {"measurement": "% Reduction in area under Blood Glucose Curve", "setting": "Female CFLP mice; dose 2.5 µmol/kg orally", "value": 54, "unit": "%"}]}
{"smiles": "CNCCOc1ccc(C[C@@H](C)N(C[C@H](O)c2ccccc2)C[C@H](O)c2ccccc2)cc1", "note": "[Example 7, N-Methyl 4-[(R)-2-[bis-[(R)-β-hydroxyphenethyl]amino]propyl]phenoxy ethylamine dihydrochloride]", "values": [{"measurement": "response vs control in vivo at 10.4 mg/kg", "setting": "Male Sprague-Dawley rats; [1]", "value": 145, "unit": "%"}, {"measurement": "response vs control in vivo at 10.4 mg/kg", "setting": "Male Sprague-Dawley rats; [2]", "value": 146, "unit": "%"}, {"measurement": "% Reduction in area under Blood Glucose Curve", "setting": "Female CFLP mice; dose 2.5 µmol/kg orally", "value": 50, "unit": "%"}]}
{"smiles": "C[C@H](COc1ccc(OCC(N)=O)cc1)N(C[C@H](O)c1ccccc1)C[C@H](O)c1ccccc1", "note": "[Example 8, 4-[(R)-2-[bis-[(R)-β-hydroxyphenethyl]amino]propoxy]phenoxyacetamide hydrochloride]", "values": [{"measurement": "response vs control in vivo at 4.73 mg/kg", "setting": "Male Sprague-Dawley rats; [1]", "value": 113, "unit": "%"}, {"measurement": "response vs control in vivo at 4.73 mg/kg", "setting": "Male Sprague-Dawley rats; [2]", "value": 103, "unit": "%"}]}
{"smiles": "CCOC(=O)COc1ccc(C[C@@H](C)N(C[C@H](O)c2ccccc2)C[C@H](O)c2ccccc2)cc1.Cl", "note": "[Example 2, Ethyl 4-[(R)-2-[bis-[(R)-β-hydroxyphenethyl]amino]propyl]phenoxyacetate hydrochloride]", "values": [{"measurement": "response vs control in vivo at 10.3 mg/kg", "setting": "Male Sprague-Dawley rats; [1]", "value": 146, "unit": "%"}, {"measurement": "response vs control in vivo at 10.3 mg/kg", "setting": "Male Sprague-Dawley rats; [2]", "value": 143, "unit": "%"}, {"measurement": "% Reduction in area under Blood Glucose Curve", "setting": "Female CFLP mice; dose 2.5 µmol/kg orally", "value": 52, "unit": "%"}]}
{"smiles": "CCOC(=O)COc1ccc(C[C@@H](C)N(C[C@H](O)c2cccc(Cl)c2)C[C@H](O)c2cccc(Cl)c2)cc1.Cl", "note": "[Example 3, Ethyl 4-[(R)-2-[bis-[(R)-β-hydroxy-3-chlorophenethyl]amino]propyl]phenoxyacetate hydrochloride]", "values": [{"measurement": "reduction in weight of perigenital adipose tissue", "setting": "Female BALB/c mice", "value": 38, "unit": "%"}, {"measurement": "response vs control in vivo at 5.8 mg/kg", "setting": "Male Sprague-Dawley rats; [1]", "value": 144, "unit": "%"}, {"measurement": "response vs control in vivo at 5.8 mg/kg", "setting": "Male Sprague-Dawley rats; [2]", "value": 132, "unit": "%"}]}
